Measurements as given in patent US20020002198A1, “Chemical synergy to elevate growth hormone release in vertebrates” (priority 2000, published 2002).

Tests used:
GH release [1] = experiment: Serum GH at 1.5 hours post night time sleep after oral ingestion, antibody capture technique, healthy volunteer; type: in vivo, human; conditions: for Augmentation of GH release at 1.5 hours post sleep (in words): oral at night sleep
Protocol: Measurements of GH release occurring at 1.5 hours post sleep were performed on serum samples from a healthy volunteer. Controls and serum analysis for GH were measured by standard commercially avialable antibody capture technique. Experiments and measurement of results occurred between June and October 2000. Each single night experimental serum collection was separated from any other experiments by 1 week. All determinations represent averaged value of triple determinations. […] Measurements were each performed on serum collected 1.5 hours post night time sleep. Choice of 1.5 hours post sleep represents one complete sleep cycle with slow wave sleep during which GH is released. Oral ingestions of stated substances occurred just before night sleep. The normal range of serum GH at 1.5 hours post sleep is in the 1-10 nanograms per milliliter (ng/ml) range. The variance in measurement precision is given by the second value. All experiments were preceded by a period of 3-4 hours since the last meal.

[2] = cited from earlier work
[3] = test system: mitochondrial maximal energy production; conditions: pharmacological levels, intravenous, aged animals, within an hour or two; cited from earlier work
[4] = oral ingestion, humans; cited from earlier work
GH release [5] = conditions: cited from earlier work
[6] = in vivo; cited from earlier work

## CC(=O)O[C@H](CC(=O)[O-])C[N+](C)(C)C [Acetyl-l-carnitine, acetyl-l-carnitine]
GH release [1]; 500 mg of the single substance alone, oral at sleep, 1.5 hour post sleep serum collection, 3-4 hours after last meal, control […] ± 0.2
  Measured GH: 0.55 ± 0.1 ng/mL
GH release [1]
  Augmentation of GH release at 1.5 hours post sleep (in words): absence of effect
[2]; 2.5-7 grams per day, Alzheimer's disease treatment
  Safety in long human testing (in words): without reported negative consequences
[2]; comparable to normal nutritional amino acids
  Toxicity sets in at: about 1 % of body weight
[3]
  Restoration of mitochondrial maximal energy production (in words): restore mitochondrial maximal energy production to youthful levels
[4]
  Maximal immediately absorbed dose: 500 to 2000 milligrams

## N=C(N)NCCC[C@H](N)C(=O)O [l-arginine]
GH release [5]
  Lowest oral dose that augmented normal night time GH release: greater than 3 grams
GH release [5]; oral, alone, doses of up to 6 gram at night
  Elevation of growth hormone secretion (in words): does not elevate growth hormone secretion

## NCCC[C@H](N)C(=O)O [l-ornithine]
GH release [1]
  Augmentation of GH release at 1.5 hours post sleep (in words): absence of effect

## NCCCCN [putrescine]
[6]
  Toxicity when administered systematically (in words): considerably less toxic

## NCCCCNCCCN [spermidine]
[6]
  Toxicity when administered systematically (in words): considerably less toxic

## NCCCNCCCCNCCCN [spermine]
[6]
  Toxicity when administered systematically (in words): significant toxicity
